The values that follow come from the METLIN SMRT retention time set (Domingo-Almenara et al. 2019).

A short description of this series: gradient 5% acetonitrile 3 min, to 50% in 2 min, to 85% in 15 min, held 3 min, 100 µL/min. As to conditions: column: Zorbax Extend-C18 2.1 x 50 mm; eluents: water / acetonitrile, 0.1% formic acid. In a few lines: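 Pure standards were run in mixtures of ~100 molecules by HPLC coupled to a quadrupole time-of-flight mass spectrometer. The column was a Zorbax Extend-C18 (2.1 × 50 mm, 1.8 μm) at 100 μL/min, with water and acetonitrile each containing 0.1% formic acid, in positive and negative ionization mode. Dead and dwell volumes were 40 μL and 900 μL. Retention time was taken from computationally picked adduct peaks, each manually inspected, with data collected over 3 months.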
On to `Cc1ccc2c(Nc3ccc(C)c(F)c3)c(C(=O)N3CCOCC3)cnc2n1`, for which the RP-LC retention time was determined as 599 s.
To `CC1CCN(c2nn(CC(=O)Nc3cccc(Cl)c3)c(=O)c3ccccc23)CC1` belongs 1210 s; to `CCOC(=O)c1cc2n(n1)CC(C)(C(=O)NCc1ccccc1)N(Cc1ccccc1)C2=O` (configuration not stated), 880 s; to `CO[C@H]1C(=O)N(C2CCN(S(=O)(=O)c3cccs3)CC2)[C@H]1c1ccncc1`, 619 s.
To `CCC(C)NC(=O)NC1CCN(c2nc3cccnc3n(Cc3ccc(C)cc3)c2=O)CC1` (configuration not stated) belongs 1040 s; to `O=C(COc1ccc(F)cc1)NCC(=O)N1CCN(c2ccccn2)CC1`, 609 s.
To `COC(=O)c1ccccc1NC(=O)N1CCc2nc[nH]c2C1` belongs 596 s; to `CCOC(=O)c1oc2ccc(S(=O)(=O)N3CCCC(CN4CCCC4)CC3)cc2c1C` (configuration not stated), 733 s.
In turn, `O=C(Nc1cnc(N2CCCCCC2)nc1)c1cc(F)ccc1F` showed an RP-LC retention time of 967 s.
Compound `O=C(NCC1CCN(C(=O)Nc2ccc(F)cc2)CC1)c1ccccn1` displayed an RP-LC retention time of 674 s.
Take `CC1CCCCN1CCNS(=O)(=O)c1ccccc1-c1nc(-c2cccc(F)c2)no1` (configuration not stated): the RP-LC retention time came to 746 s.
With `Cc1ccc(CN2C(=O)C3(CCOCC3)CC2c2nnnn2C(C)(C)C)cc1` (configuration not stated), the RP-LC retention time amounted to 783 s.
Consider `CCN(CC)CCNC(=O)c1cn(C)nc1S(=O)(=O)N1CCN(c2cccc(Cl)c2)CC1`, for which the RP-LC retention time came out at 711 s.
To `CCOC(=O)c1ccc(NC(=O)CSc2nnc(-c3cccn(CC)c3=O)n2C)cc1` belongs 794 s.
To `CCOC(=O)c1[nH]c(C)c(CCC(=O)NCc2ccc3c(c2)OCO3)c1C` belongs 780 s.
`Cn1c(Cn2c(=O)sc3ccccc32)nnc1SCC(=O)NCC1CCCO1` (configuration not stated) returned an RP-LC retention time of 608 s.
In turn, `CCOCCCNC(=O)c1c(N2CCCC2=O)c2cc(OC)ccc2n1CC` yielded an RP-LC retention time of 761 s.
The compound `CCc1ccc(OCc2nc(C)c(C(=O)Nc3nc(-c4ccc(OC)cc4)cs3)s2)cc1` came in with an RP-LC retention time of 1290 s.
To `CCc1ccc(NC(=O)Cn2nc3c(Oc4cc(C)cc(C)c4)nccn3c2=O)cc1` belongs 943 s; to `Cc1nn2c(CNS(=O)(=O)c3ccccc3F)c(-c3ccccc3)nc2s1`, 834 s.
To `Cc1ccc(-c2nc(-c3ccc(S(=O)(=O)N4CCC(C(=O)N5CCCC5)CC4)cc3)no2)cc1F` belongs 1110 s.
Consider `O=C(NCCN1CCCC1)C1CCCN(c2ncnc3c2nc2n3CCCCC2)C1` (configuration not stated), for which the RP-LC retention time turned out to be 591 s.
In the case of `CCCCCCCNC(=O)C1CCCN(c2ncc(-c3ccc(F)cc3)cn2)C1` (configuration not stated) it was 1260 s; in that of `CCCc1nnsc1C(=O)NCCCC(=O)Nc1cccc2cccnc12`, 791 s.
For `Cn1nc(-c2nnc(-c3ccccc3F)o2)c2c1CCN(S(=O)(=O)c1ccc(F)c(Cl)c1)C2`, the RP-LC retention time was determined as 990 s.
In the case of `CC(=O)Nc1c(C)nn(-c2ccccc2)c1N1CCC(C(=O)NCCCN2CCCC2=O)CC1` it was 605 s; in that of `COc1ccccc1CNS(=O)(=O)c1ccc2c(c1)C(=O)N(C)c1ncccc1O2`, 907 s.
To `CC(NS(=O)(=O)CCCOc1ccc2c(c1)OCO2)c1ccccc1` (configuration not stated) belongs 750 s.
The compound `COc1ccccc1-n1ccnc(NC(=O)Nc2ccc(F)cc2)c1=O` registered an RP-LC retention time of 896 s.
To `O=C(CCc1c(-c2ccccc2)nc2ccccn12)Nc1cccc(F)c1` belongs 692 s; to `O=C(Nc1nc(-c2ccco2)cs1)C1COCC(=O)N1Cc1ccccc1` (configuration not stated), 729 s.
In the case of `COc1ccc(-c2nc(C)cc(C)c2CNS(=O)(=O)c2ccc(C)cc2)cc1` it was 670 s.
